# Results published in patent publication US8215314B2, “Photochemical tissue bonding” (The General Hospital Corporation, priority 2000, dated 2012).
# Columns and labels:
# [1] = test system: corneal incision, rabbit eyes ex vivo; test: IOP required to produce fluid leakage from corneal incision (IOPL) after PTB, ex vivo; settings: for mean IOPL: 4.5 mM, 351 nm
# Method: PTB can be used to seal or repair a tissue, e.g., a wound, e.g., a corneal wound. This example illustrates the experimental procedure designed to test the efficacy of PTB, as described herein, using mammalian corneas ex vivo. Experiments were performed according to the following procedure.
# Rabbit eyes were received on ice (Pel-Freez Biologicals) approximately 17-24 hours after sacrifice and enucleation. The eyes were kept on ice and used the same day. The eye to be studied was mounted on a plastic-covered polystyrene block and fixed in position by needles inserted through the extraocular muscles into the polystyrene. The eye was then placed under a dissecting microscope (Reichert Scientific Instruments, Ill.) allowing visualization of the treated area during the entire procedure. A 27 G needle was inserted parallel to the iris, 2 mm anterior to the limbus into clear cornea, and positioned above the lens in the anterior chamber. The needle was connected to both a blood pressure transducer (Harvard Apparatus, Mass.) and a mini-infuser 400 (Bard Harvard) via a T coupler. The pressure transducer consists of a transducer element that is hard wired to an amplifier box and uses a semi-disposable dome with an integral silicone rubber membrane. Pressure inside the dome is transmitted through the membrane to a plastic button whose motion is translated to a voltage. The voltage generated by the transducer amplifier combination is proportional to the […] intraocular pressure (IOP). Signals from the transducer amplifier were recorded using a Macintosh G3 Power book equipped with a PCMICA (DAQCARD—1200) data acquisition card (National Instruments, Tex.). Data acquisition was controlled using programs written using the LabView 4 software package (National Instruments, Tex.). The voltage from the transducer and amplifier was converted to pressure by calibrating with a standing manometer.
# Experiments on individual eyes were initiated by increasing the IOP to 30-40 mm Hg, using water infusion at a rate of 1 mL per minute. An incision was made in the cornea, 1 mm from the limbus and parallel to the iris, using a 3.5 mm angled keratome (Becton Dickinson Co.). For each eye the IOP required to produce fluid leakage from the incision (IOPL) was recorded pre- and post-PTB treatment. A photosensitizer, dissolved in phosphate buffer solution (PBS, pH 7.2, Gibco BRL) was applied to the walls of the incision using a Gastight, 50 μl syringe (Hamilton Co.) with a 27 G needle.
# Irradiations employed a continuous wave (CW) argon-ion laser (Innova 100; Coherent, Inc., Palo Alto, Calif.) at 488 nm (for Fl and R-5-P), 514.5 nm (for RB) or 351 nm (for NHPT). An argon-ion-pumped dye laser (CR-599; Coherent) with 4-dicyanomethylene-2-methyl-6-(p-dimethylaminostyryl)-4H-pyran dye (Exciton, Inc., Dayton, Ohio) was used for irradiation at 661 nm (for MB). Laser light was coupled into a 1 mm diameter quartz fiber and a 1 cm diameter spot on the tissue was created by using a combination of 1 and 2 inch focal length, S1-UV grade fused silica, biconvex lenses (Esco Products), mounted in a SM1 series cage assembly (Thorlabs, N.J.). The 1 cm diameter circular spot was sufficient to cover the entire incision and the optics were adjusted so that the laser light was incident on the cornea at an angle approximately 45° to the plane of the incision. Dose response curves were obtained by varying the duration of the irradiation at a constant irradiance. In separate experiments the effects of laser irradiance were investigated by comparison of the same delivered dose using different irradiances. The doses used ranged from 124 to 1524 J/cm^2 and the irradiances used were 0.64, 1.27, 2.55 and 3.86 W/cm^2. The laser exposure time varied from 33 seconds for the lowest dose using the highest irradiance to 26 minutes, 27 seconds for the highest dose using the lowest irradiance. The IOPL was recorded immediately following treatment. […]
# [2] = Absorption maxima and absorption coefficients of photosensitizers; assay type: physicochemical; settings: for absorption coefficient at the laser wavelength used: RB at 514 nm, Fl at 488 nm, MB at 661 nm, R-5-P at 488 nm, N-HPT at 351 nm
# Description: The photosensitizers were used as received with the exception of N-HPT which was recrystallized twice from aqueous ethanol before use.
# [3] = test system: corneal incision, rabbit eyes ex vivo; test: IOP required to produce fluid leakage from corneal incision (IOPL) after PTB, ex vivo; settings: 488 nm
SMILES,"mean IOPL ([1]; 0.64 W/cm2, 254 J/cm2)","mean IOPL ([1]; 0.64 W/cm2, 508 J/cm2)",absorption maximum [2],absorption coefficient at the laser wavelength used [2],"post-treatment IOPL ([1]; MB 3 mM, 661 nm, 0.64 W/cm^2, doses 508, 762 and 1016 J/cm^2)","post PTB treatment IOPL value ([3]; 11 mM R-5-P, 762 and 1016 J/cm^2, 1.27-3.82 W/cm^2, p<0.05)","IOPL ([3]; 0.6 mM Fl, 762 J/cm^2 at 3.82 W/cm^2)"
"On1ccccc1=S [N-HPT, N-hydroxypyridine-2-(1H)-thione]",60±23 mm Hg,126±40 mm Hg,314 nm,2110 dm^3 mol^−1 cm^−1,,,
"CN(C)c1ccc2nc3ccc(=[N+](C)C)cc-3sc2c1 [MB, methylene blue]",,,664 nm,15600 dm^3 mol^−1 cm^−1,did not increase,,
"Cc1cc2nc3c(=O)[nH]c(=O)nc-3n(C[C@H](O)[C@H](O)[C@H](O)COP(=O)(O)O)c2cc1C [R-5-P, riboflavin-5-phosphate]",,,445 nm,4330 dm^3 mol^−1 cm^−1,,significantly increased,
"O=C1OC2(c3ccc(O)cc3Oc3cc(O)ccc32)c2ccccc21 [Fl, fluorescein]",,,,,,,116±40 mm Hg
